The results in this text go back to US20130123201A1, “MODULATION OF CYTOKINE-INDUCED CHRONIC INFLAMMATORY RESPONSES” (UNIVERSITY OF MANITOBA, priority 2010, published 2013).

Assay type in all cases: cell-based
Assay [1] has as its system Human macrophage-like THP-1 cells. The assay can be described thus: qRT-PCR of cytokine-induced gene expression in THP-1 cells. Here is the method:
Quantitative real-time PCR (qRT-PCR): Human FLS or monocytic THP-1 cells were stimulated with indicated stimulants for 4 hr. RNA was isolated and analyzed for gene expression by qRT-PCR using SuperScript III Platinum Two-Step qRT-PCR Kit with SYBR Green (Invitrogen), according to the manufacturer's instructions, in the ABI PRISM 7000 sequence detection system (Applied Biosystems). Fold changes were calculated using the comparative Ct method, after normalization using 18S rRNA primers.
Quantitative real-time PCR (qRT-PCR): Human FLS or macrophage-like THP-1 cells were stimulated with indicated stimulants for 4 hr. RNA was isolated and analyzed for gene expression by qRT-PCR using SuperScript III Platinum Two-Step qRT-PCR Kit with SYBR Green (Invitrogen), according to the manufacturer's instructions, in the ABI PRISM 7000 sequence detection system (Applied Biosystems). Fold changes were calculated using the comparative Ct method, after normalization using 18S rRNA primers.

For assay [2], the system named is Human fibroblast-like synovial (FLS) cells. As to the kind of experiment: qRT-PCR of cytokine-induced gene expression in FLS cells. The note with it: some of the responses. On the procedure:
Cell culture and isolation: Human fibroblast-like synovial (FLS) cells were isolated from synovial tissues obtained from patients […]. Briefly, the tissues were digested with 1 mg/ml collagenase and 0.05 mg/ml hyaluronidase (both obtained from Sigma; Oakville, ON, Canada) in Hanks' balanced salt solution (Gibco) for 1-2 hours at 37° C. The cells were cultured in DMEM media (Gibco) supplemented with sodium pyruvate and non-essential amino acids (referred to as complete DMEM media henceforth), containing […] in a humidified incubator at 37° C. and 10% CO2. […] Cellular cytotoxicity was evaluated after 24 hr stimulation with the various stimulants used in this study by monitoring the release of lactate dehydrogenase (LDH) employing a colorimetric detection kit (Roche Diagnostics, Laval, QC, Canada).
Quantitative real-time PCR (qRT-PCR): Human FLS or monocytic THP-1 cells were stimulated with indicated stimulants for 4 hr. RNA was isolated and analyzed for gene expression by qRT-PCR using SuperScript III Platinum Two-Step qRT-PCR Kit with SYBR Green (Invitrogen), according to the manufacturer's instructions, in the ABI PRISM 7000 sequence detection system (Applied Biosystems). Fold changes were calculated using the comparative Ct method, after normalization using 18S rRNA primers. […]

Assay [3] deals with Human macrophage-like THP-1 cells. The assay can be described thus: ELISA of cytokine/chemokine production in THP-1 tissue culture supernatants. Here is the method:
ELISA immunoassay: Tissue culture supernatants were centrifuged at 1500× g for 5-7 min to obtain cell-free samples and the aliquots were stored at −20° C. until further use. Production of chemokine Gro-α was monitored in the tissue culture supernatants by ELISA employing human Gro-α DuoSet (R&D Systems Inc.) as per the manufacturer's instructions. Production of cytokine TNF-α was monitored in the tissue culture supernatants using specific antibody pairs from eBioscience, Inc., and production of IL-8 was monitored using specific antibody pairs from R&D Systems, Inc., as per the manufacturer's instructions. The concentration of the cytokines or chemokines in the tissue culture supernatants was evaluated by establishing a standard curve with serial dilutions of the recombinant human cytokines or chemokines as required.
ELISA immunoassay: Tissue culture supernatants were centrifuged at 1500× g for 5-7 min to obtain cell-free samples and the aliquots were stored at −20° C. until further use. Production of chemokine Gro-α was monitored in the tissue culture supernatants by ELISA employing human Gro-α DuoSet (R&D Systems Inc.) per the manufacturer's instructions. Production of cytokine TNF-α was monitored in the tissue culture supernatants using specific antibody pairs from eBioscience, Inc., and production of IL-8 was monitored using specific antibody pairs from R&D Systems, Inc., per the manufacturers' instructions. The concentrations of the cytokines or chemokines in the tissue culture supernatants were evaluated by establishing a standard curve with serial dilutions of the recombinant human cytokines or chemokines as required.
Impact of cationic peptide LL-37 and its synthetic derivatives on IL-32-induced protein production: Human macrophage-like THP-1 cells were stimulated with IL-32 (20 ng/mL) in the presence and absence of cationic peptide LL-37, tissues culture supernatants were monitored for the production of pro-inflammatory cytokines TNF-α and IL-1β, and chemokines after 24 hr of stimulation. […] As LL-37 suppressed IL-32-mediated pro-inflammatory responses, we also evaluated the impact of LL-37 derived synthetic peptides. […] No studies to data have explored the impact of these peptides in the context of chronic inflammation. […] This provides the data that supports further investigation of these peptide candidates as potential therapeutics for diseases characterized by chronic inflammation.

The subject of another assay is human PBMC. As to the kind of experiment: ELISA of IL-32-induced TNF-α and IL-1β production in PBMC (ex-vivo). The source says: In order to confirm these activities in a physiologically relevant system, we evaluated the impact of the peptide in an ex-vivo assay using human PBMC, because cells recruited from the circulation are a major component of inflammatory infiltrates. Venous blood was collected from healthy volunteers with informed consent in accordance to a protocol approved by the Institutional Review Board at the University of Manitoba. PBMC was isolated from blood following the teaching of Mookherjee et al. (2009, Systems biology evaluation of immune responses induced by human host defence peptide LL-37 in mononuclear cells. Mol. Biosyst. 5:483-496). PBMC were stimulated with chronic inflammatory cytokine IL-32 (20 ng/ml) in the presence and absence of 5 μM of peptides, LL-37 and its derivatives (Table 7) for 24 hr. The tissue culture supernatants were monitored for the production of pro-inflammatory cytokines TNF-α and IL-1β by ELISA. […] Results shown are an average of four independent biological experiments performed with cells isolated from blood of four different donors ±standard error.

The subject of assay [4] is Human macrophage-like THP-1 cells. The assay can be described thus: ELISA of cytokine/chemokine production in THP-1 tissue culture supernatants. The settings on record: both monocytic THP-1 and human FLS cells, data not shown.
[5] abbreviates: THP-1 cells, in the presence of the peptide.
Where [6] appears, read: THP-1 cells, in the presence of the peptide, p<0.01.
The mark [7] stands for this setting: macrophage-like THP-1 cells, IL-32 20 ng/mL, 24 hr.

“LL-37: Human cathelicidin cationic host defence peptide, SEQ ID NO: 21, LLGDFFRKSKEKIGKEFKRIVQRIKDFLRNLVPRTES”: in assay [1] (setting [5]), the “Suppression of IL-32-induced IL-8 (CXCL8) expression” value is listed as 30-40%, the “Suppression of IL-32-induced IL-23 expression” value is 30-40% and the “Suppression of IL-32-induced NF-κB1A expression” value is on record as 30-40%. Also, in assay [1] (setting [6]), the “Suppression of IL-32-induced Gro-α (CXCL1) gene expression” value was over 50%, the “Suppression of IL-32-induced IL-6 gene expression” value is recorded as over 50% and the “Suppression of IL-32-induced TNF-α gene expression” value is recorded as over 50%. In addition, in assay [1] (human monocytic cells / macrophages, data not shown), the “Effect on IL-17-induced expression of pro-inflammatory genes or chemokine genes” value was “not altered”. Besides, the “Effect on IL-17-induced transcriptional responses” value in assay [2] is “significantly enhanced”. Moreover, in assay [3] (THP-1 monocytic cells, ELISA after 24 or 48 hr), the “Suppression of IL-32-induced TNF-α production” value is listed as over 30%. Besides, the “Suppression of IL-32-induced chemokine Gro-α production” value in assay [3] (THP-1 monocytic cells, ELISA after 24 or 48 hr, p<0.05) is 12±4%. Further, in assay [3] (setting [7]), the “Effect on IL-32-induced IL-1β production” value is “significantly suppressed”; the “Effect on IL-32-induced TNF-α production” value is given as “significantly suppressed”; the “Effect on IL-32-induced chemokine production (IL-8, GROα)” value was “not altered”. Besides, the “Effect on IL-32-induced IL-1β production” value in the assay with human PBMC (human PBMC, IL-32 20 ng/ml, 5 μM peptide, 24 hr) is “neutralized”. The “Effect on IL-32-induced TNF-α production” value in the assay with human PBMC (human PBMC, IL-32 20 ng/ml, 5 μM peptide, 24 hr, p<0.05) is given as “neutralized”. In addition, the “Effect on IL-32 induced pro-inflammatory protein production (FIG. 21 legend)” value in the assay on human PBMC (peripheral blood mononuclear cells) is “suppression”. In addition, in assay [4], the “Effect on IL-17-induced chemokine production” value is “not significantly altered (or modestly enhanced)”.
